CC(=O)O[C@H]1CC[C@@]2(C)C(=CC[C@@H]3[C@@H]2CC[C@]2(C)C(C(C)=O)=CC[C@@H]32)C1
Conditions	solubility (mole fraction)
in acetone, 278.55 K	0.00427
in acetone, 281.35 K	0.0048
in acetone, 284.75 K	0.00538
in acetone, 288.65 K	0.00622
in acetone, 291.75 K	0.00678
in acetone, 293.95 K	0.00731
in acetone, 296.75 K	0.008
in acetone, 299.05 K	0.00875
in acetone, 301.55 K	0.00955
in acetone, 304.25 K	0.0105
in cyclohexane, 291.95 K	0.00212
in cyclohexane, 300.25 K	0.00314
in cyclohexane, 302.75 K	0.00363
in cyclohexane, 305.75 K	0.00426
in cyclohexane, 309.25 K	0.0049
in cyclohexane, 312.95 K	0.00574
in cyclohexane, 315.9 K	0.00662
in cyclohexane, 320.15 K	0.00767
in cyclohexane, 322.95 K	0.00878
in cyclohexane, 327.85 K	0.0112
in cyclohexane, 332.25 K	0.0135
in cyclohexane, 336.45 K	0.0162
in cyclohexane, 340.35 K	0.019
in ethanol, 285 K	0.00103
in ethanol, 289.85 K	0.00128
in ethanol, 292.6 K	0.00144
in ethanol, 294.95 K	0.00162
in ethanol, 297.65 K	0.00185
in ethanol, 300.95 K	0.0021
in ethanol, 304.55 K	0.0024
in ethanol, 307.55 K	0.00277
in ethanol, 310.55 K	0.00319
in ethanol, 314.15 K	0.00371
in ethanol, 317.55 K	0.00432
in ethanol, 321.35 K	0.00503
in ethanol, 324.55 K	0.00583
in ethanol, 327.05 K	0.0065
in methanol, 282.75 K	0.000402
in methanol, 286.85 K	0.000491
in methanol, 291.95 K	0.000632
in methanol, 295.15 K	0.000779
in methanol, 299.95 K	0.000965
in methanol, 303.85 K	0.00112
in methanol, 309.25 K	0.00142
in methanol, 312.15 K	0.0016
in methanol, 315.55 K	0.00185
in methanol, 318.35 K	0.00215
in methanol, 320.05 K	0.00231
